# From US8912120B2, “Herbicidal compositions comprising 4-amino-3-chloro-5-fluoro-6-(4-chloro-2-fluoro-3-methoxyphenyl) pyridine-2-carboxylic acid or a derivative thereof and synthetic auxin herbicides” (Dow AgroSciences, LLC., priority 2012, dated 2014)
# Where two headings read alike, the source gives them in different places.
# Tests used:
# LEFCH [1] = test: Example I: postemergence foliar-applied herbicidal mixtures, direct seeded rice, LEFCH; type: in vivo, Leptochloa chinensis (Chinese sprangletop)
# LEFCH [2] = test: Example II: in-water applied herbicidal mixtures, transplanted paddy rice, LEFCH; type: in vivo, Leptochloa chinensis (Chinese sprangletop); details: for Visual Weed Control (%) - 21 DAA LEFCH Obs / Visual Weed Control (%) - 25 DAA LEFCH Obs: in-water application
# Method in brief: (§1)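 Greenhouse in-water application: products pipetted one after another into the aqueous layer over mud-grown transplanted rice, with rice seedlings at the 2nd–3rd leaf stage transplanted 4 days earlier. Controls got the solvent blank only; every pot received matching acetone and crop oil concentrate.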
# SIDSP = test: Example V: postemergence herbicidal activity of mixtures in forage crops, SIDSP; type: in vivo, Sida spinosa (prickly sida); details: alone, foliar, approximately 21 days
# Procedure: (§2) Seeds or root cuttings of the desired test plant species were planted in Sun Gro MetroMix® 306 planting mixture, which typically has a pH of 6.0 to 6.8 and an organic matter content of about 30 percent, in plastic pots with a surface area of 126.6 square centimeters (cm^2). […] The plants were grown for 14-60 days in a greenhouse with an approximate 14 hour photoperiod which was maintained at approximately 28° C. during the day and 24° C. during the night.
# (§3) Spray solutions of the second herbicide or experimental compound mixtures were prepared by adding the stock solutions to the appropriate amount of dilution solution to form 12 mL spray solution with active ingredients in two-way combinations.
# ECHOR = test: Example II: in-water applied herbicidal mixtures, transplanted paddy rice, ECHOR; type: in vivo, Echinochloa oryzoides (early watergrass); details: for Visual Weed Control (%) - 20 DAA ECHOR Obs / Visual Weed Control (%) - 22 DAA ECHOR Obs: in-water application
# Method in brief: as §1
# CYPRO = test: Example II: in-water applied herbicidal mixtures, weed control in transplanted paddy rice (greenhouse), CYPRO; type: in vivo, Cyperus rotundus (purple nutsedge); details: for Visual Weed Control (%) - 21 DAA CYPRO Obs / Visual Weed Control (%) - 22 DAA CYPRO Obs: in-water application; for Visual Weed Control (%) Obs: 20 DAA
# Method in brief: as §1
# ECHCO = test: Example I: postemergence foliar-applied herbicidal mixtures, direct seeded rice, ECHCO; details: for Visual Weed Control (%) - 21 DAA ECHCO Obs: Fluroxypyr MHE 0 gae/ha
# Procedure: (§4) The soil matrix was contained in plastic pots with a volume of 1 quart and a surface area of 83.6 square centimeters (cm^2). […] The plants were grown for 8-22 days in a greenhouse with an approximate 14 h photoperiod which was maintained at about 29° C. during the day and 26° C. during the night. Nutrients (Peters Excel® 15-5-15 5-Ca 2-Mg and iron chelate) were applied in the irrigation solution as needed and water was added on a regular basis. Supplemental lighting was provided with overhead metal halide 1000-Watt lamps as necessary. The plants were employed for testing when they reached the first through fourth true leaf stage.
# (§5) Treatments consisted of the acid or esters of 4-amino-3-chloro-5-fluoro-6-(4-chloro-2-fluoro-3-methoxy-phenyl)pyridine-2-carboxylic acid (Compound A), each formulated as an SC (suspension concentrate), and various herbicidal components alone and in combination. Forms of compound A were applied on an acid equivalent basis.
# (§6) For treatments comprised of formulated compounds, measured amounts of compounds were placed individually in 25 mL glass vials and diluted in a volume of 1.25% (v/v) Agri-Dex® crop oil concentrated to obtain 12× stock solutions. […] Application solutions were prepared by adding an appropriate amount of each stock solution (e.g., 1 mL) and diluted to the appropriate final concentrations with the addition of 10 mL of an aqueous mixture of 1.25% (v/v) crop oil concentrate so that the final spray solutions contained 1.25+/−0.05% (v/v) crop oil concentrate.
# (§7) All stock solutions and applications solutions were visually inspected for compound compatibility prior to application. Spray solutions were applied to the plant material with an overhead Mandel track sprayer equipped with a 8002E nozzles calibrated to deliver 187 L/ha over an application area of 0.503 m^2 at a spray height of 18 to 20 inches (46 to 50 cm) above average plant canopy height. Control plants were sprayed in the same manner with the solvent blank.
# (§8) The treated plants and control plants were placed in a greenhouse as described above and watered by sub-irrigation to prevent wash-off of the test compounds. After approximately 3 weeks, the condition of the test plants as compared with that of the untreated plants was determined visually and scored on a scale of 0 to 100 percent where 0 corresponds to no injury or growth inhibition and 100 corresponds to complete kill.
# (§9) Colby's equation was used to determine the herbicidal effects expected from the mixtures (Colby, S. R. 1967. Calculation of the synergistic and antagonistic response of herbicide combinations. Weeds 15:20-22).
# (§10) The following equation was used to calculate the expected activity of mixtures containing two active ingredients, A and B: Expected=A+B−(A×B/100)
# (§11) A=observed efficacy of active ingredient A at the same concentration as used in the mixture.
# (§12) B=observed efficacy of active ingredient B at the same concentration as used in the mixture.
# CASOB = test: Example V: postemergence herbicidal activity of mixtures in forage crops (greenhouse), CASOB; type: in vivo, Cassia obtusifolia (sicklepod); details: alone, foliar, approximately 21 days
# Procedure: as §2, §3
# SCPMA = test: Example II: in-water applied herbicidal mixtures, transplanted paddy rice, SCPMA; type: in vivo
# Method in brief: as §1
# ECHCG [3] = test: Example I: postemergence foliar-applied herbicidal mixtures, direct seeded rice, ECHCG
# Procedure: as §4, §5, §6, §7, §8, §9, §10, §11, §12
# DIGSA = test: Example I: postemergence foliar-applied herbicidal mixtures, direct seeded rice, DIGSA
# Procedure: as §4, §5, §6, §7, §8, §9, §10, §11, §12
# ECHCG [4] = test: Example II: in-water applied herbicidal mixtures, transplanted paddy rice, ECHCG; type: in vivo, Echinochloa crus-galli (barnyardgrass); details: for Visual Weed Control (%) - 21 DAA ECHCG Obs / Visual Weed Control (%) - 22 DAA ECHCG Obs: in-water application
# Method in brief: as §1
# IPOHE = test: Example I: postemergence foliar-applied herbicidal mixtures, direct seeded rice, IPOHE; type: in vivo, Ipomoea hederacea (ivyleaf morningglory)
# Procedure: as §4, §5, §6, §7, §8, §9, §10, §11, §12
# CYPIR = test: Example I: postemergence foliar-applied herbicidal mixtures, direct seeded rice, CYPIR; type: in vivo, Cyperus iria (rice flatsedge)
# Procedure: as §4, §5, §6, §7, §8, §9, §10, §11, §12
smiles,measurement,setting,value
"COc1c(Cl)ccc(-c2nc(C(=O)OCc3ccccc3)c(Cl)c(N)c2F)c1F [Compound A Benzyl Ester, benzyl ester of 4-amino-3-chloro-5-fluoro-6-(4-chloro-2-fluoro-3-methoxy-phenyl)pyridine-2-carboxylic acid]",Visual Weed Control (%) - 20 DAA LEFCH Obs,LEFCH [1]; 4.38 gae/ha,0%
same,Visual Weed Control (%) - 20 DAA LEFCH Obs,LEFCH [1]; 8.75 gae/ha,20%
same,Visual Weed Control (%) - 19 DAA LEFCH Obs,LEFCH [1]; 16 gae/ha,58%
same,Visual Weed Control (%) - 21 DAA LEFCH Obs,LEFCH [2]; 4.38 gae/ha,0%
same,Visual Weed Control (%) - 21 DAA LEFCH Obs,LEFCH [2]; 8.75 gae/ha,0%
same,Visual Weed Control (%) - 25 DAA LEFCH Obs,LEFCH [2]; 8.75 gae/ha,50%
same,Visual Weed Control (%) - 21 DAA LEFCH Obs,LEFCH [2]; 17.5 gae/ha,0%
same,Visual Weed Control (%) - 25 DAA LEFCH Obs,LEFCH [2]; 17.5 gae/ha,90%
same,Visual Weed Control (%) Obs,"LEFCH [2]; 19 DAA, 35 gae/ha",80%
same,Visual Injury (%) Obs,"LEFCH [2]; 25 DAA, 8.75 gae/ha",50%
same,Visual Weed Control (%) Obs,"LEFCH [2]; 25 DAA, 8.75 gae/ha",50%
same,Visual Injury (%) Obs,"LEFCH [2]; 25 DAA, 17.5 gae/ha",90%
same,Visual Weed Control (%) Obs,"LEFCH [2]; 25 DAA, 17.5 gae/ha",90%
same,SIDSP Obs (observed value),SIDSP; 1.1 gae/ha,72%
same,SIDSP Obs (observed value),SIDSP; 2.2 gae/ha,77%
same,SIDSP Obs (observed value),SIDSP; 4.4 gae/ha,85%
same,Visual Weed Control (%) - 20 DAA ECHOR Obs,ECHOR; 4.38 gae/ha,10%
same,Visual Weed Control (%) - 20 DAA ECHOR Obs,ECHOR; 8.75 gae/ha,20%
same,Visual Weed Control (%) - 22 DAA ECHOR Obs,ECHOR; 8.75 gae/ha,25%
same,Visual Weed Control (%) - 20 DAA ECHOR Obs,ECHOR; 17.5 gae/ha,50%
same,Visual Weed Control (%) - 22 DAA ECHOR Obs,ECHOR; 17.5 gae/ha,45%
same,pest or weed control at 8 g/ha,"ECHOR; Echinochloa oryzoides, 456 h, read-out: Visual Weed Control (%) Obs, 19 DAA, 8 gae/ha",10%
same,pest or weed control at 16 g/ha,"ECHOR; Echinochloa oryzoides, 456 h, read-out: Visual Weed Control (%) Obs, 19 DAA, 16 gae/ha",25%
same,pest or weed control at 32 g/ha,"ECHOR; Echinochloa oryzoides, 456 h, read-out: Visual Weed Control (%) Obs, 19 DAA, 32 gae/ha",35%
same,pest or weed control at 4.38 g/ha,"ECHOR; Echinochloa oryzoides, 480 h, read-out: Visual Weed Control (%) Obs, 20 DAA, 4.38 gae/ha",25%
same,pest or weed control at 8.75 g/ha,"ECHOR; Echinochloa oryzoides, 480 h, read-out: Visual Weed Control (%) Obs, 20 DAA, 8.75 gae/ha",20%
same,pest or weed control at 17.5 g/ha,"ECHOR; Echinochloa oryzoides, 480 h, read-out: Visual Weed Control (%) Obs, 20 DAA, 17.5 gae/ha",30%
same,pest or weed control at 35 g/ha,"ECHOR; Echinochloa oryzoides, 480 h, read-out: Visual Weed Control (%) Obs, 20 DAA, 35 gae/ha",73%
same,pest or weed control at 4.38 g/ha,"ECHOR; Echinochloa oryzoides, 504 h, read-out: Visual Weed Control (%) Obs, 21 DAA, 4.38 gae/ha",15%
same,pest or weed control at 8.75 g/ha,"ECHOR; Echinochloa oryzoides, 504 h, read-out: Visual Weed Control (%) Obs, 21 DAA, 8.75 gae/ha",15%
same,pest or weed control at 17.5 g/ha,"ECHOR; Echinochloa oryzoides, 504 h, read-out: Visual Weed Control (%) Obs, 21 DAA, 17.5 gae/ha",20%
same,pest or weed control at 8.75 g/ha,"ECHOR; Echinochloa oryzoides, 528 h, read-out: Visual Weed Control (%) Obs, 22 DAA, 8.75 gae/ha",35%
same,pest or weed control at 17.5 g/ha,"ECHOR; Echinochloa oryzoides, 528 h, read-out: Visual Weed Control (%) Obs, 22 DAA, 17.5 gae/ha",30%
same,pest or weed control at 8.75 g/ha,"ECHOR; Echinochloa oryzoides, 600 h, read-out: Visual Weed Control (%) Obs, 25 DAA, 8.75 gae/ha",85%
same,pest or weed control at 17.5 g/ha,"ECHOR; Echinochloa oryzoides, 600 h, read-out: Visual Weed Control (%) Obs, 25 DAA, 17.5 gae/ha",90%
same,Visual Weed Control (%) - 21 DAA CYPRO Obs,CYPRO; 4.38 gae/ha,0%
same,Visual Weed Control (%) - 22 DAA CYPRO Obs,CYPRO; 4.38 gae/ha,90%
same,Visual Weed Control (%) - 21 DAA CYPRO Obs,CYPRO; 8.75 gae/ha,0%
same,Visual Weed Control (%) - 22 DAA CYPRO Obs,CYPRO; 8.75 gae/ha,70%
same,Visual Weed Control (%) Obs,CYPRO; 4.38 gae/ha,0%
same,Visual Weed Control (%) Obs,CYPRO; 8.75 gae/ha,0%
same,Visual Weed Control (%) - 20 DAA ECHCO Obs,ECHCO; 4.38 gae/ha,50%
same,Visual Weed Control (%) - 23 DAA ECHCO Obs,ECHCO; 4.38 gae/ha,40%
same,Visual Weed Control (%) - 20 DAA ECHCO Obs,ECHCO; 8.75 gae/ha,75%
same,Visual Weed Control (%) - 23 DAA ECHCO Obs,ECHCO; 8.75 gae/ha,40%
same,Visual Weed Control (%) - 23 DAA ECHCO Obs,ECHCO; 17.5 gae/ha,75%
same,Visual Weed Control (%) - 21 DAA ECHCO Obs,ECHCO; Compound A Benzyl Ester rate printed '—' (second line),75%
same,Visual Weed Control (%) - 21 DAA ECHCO Obs,ECHCO; Compound A Benzyl Ester rate printed '—',70%
same,CASOB Obs (observed value),CASOB; 1.1 gae/ha,28%
same,CASOB Obs (observed value),CASOB; 2.2 gae/ha,33%
same,CASOB Obs (observed value),CASOB; 4.4 gae/ha,38%
same,Visual Weed Control (%) Obs,"SCPMA; 20 DAA, 35 gae/ha",0%
same,Visual Weed Control (%) Obs,"SCPMA; 20 DAA, 70 gae/ha",0%
same,Visual Weed Control (%) Obs,"SCPMA; 21 DAA, 4.38 gae/ha",0%
same,Visual Weed Control (%) Obs,"SCPMA; 21 DAA, 8.75 gae/ha",0%
same,Visual Weed Control (%) Obs,"SCPMA; 21 DAA, 17.5 gae/ha",0%
same,Visual Weed Control (%) Obs,"SCPMA; 22 DAA, 4.38 gae/ha",0%
same,Visual Weed Control (%) Obs,"SCPMA; 22 DAA, 8.75 gae/ha",0%
same,Visual Weed Control (%) Obs,"SCPMA; 22 DAA, 17.5 gae/ha",0%
same,Visual Weed Control (%) - 21 DAA ECHCG Obs,ECHCG [3]; 4.38 gae/ha,48%
same,Visual Weed Control (%) - 23 DAA ECHCG Obs,ECHCG [3]; 4.38 gae/ha,40%
same,Visual Weed Control (%) - 21 DAA ECHCG Obs,ECHCG [3]; 8.75 gae/ha,55%
same,Visual Weed Control (%) - 23 DAA ECHCG Obs,ECHCG [3]; 8.75 gae/ha,55%
same,Visual Weed Control (%) - 21 DAA ECHCG Obs,"ECHCG [3]; Compound A Benzyl Ester rate printed '—' (second line), Fluroxypyr MHE 0 gae/ha",85%
same,Visual Weed Control (%) - 21 DAA ECHCG Obs,"ECHCG [3]; Compound A Benzyl Ester rate printed '—', Fluroxypyr MHE 0 gae/ha",10%
same,Visual Weed Control (%) - 23 DAA DIGSA Obs,DIGSA; 4.38 gae/ha,0%
same,Visual Weed Control (%) - 23 DAA DIGSA Obs,DIGSA; 8.75 gae/ha,0%
same,Visual Weed Control (%) - 23 DAA DIGSA Obs,DIGSA; 17.5 gae/ha,15%
same,Visual Weed Control (%) - 20 DAA DIGSA Obs,DIGSA; 35 gae/ha,38%
same,Visual Weed Control (%) - 21 DAA ECHCG Obs,ECHCG [4]; 4.38 gae/ha,0%
same,Visual Weed Control (%) - 22 DAA ECHCG Obs,ECHCG [4]; 4.38 gae/ha,30%
same,Visual Weed Control (%) - 21 DAA ECHCG Obs,ECHCG [4]; 8.75 gae/ha,0%
same,Visual Weed Control (%) - 22 DAA ECHCG Obs,ECHCG [4]; 8.75 gae/ha,45%
same,Visual Weed Control (%) - 21 DAA ECHCG Obs,ECHCG [4]; 17.5 gae/ha,25%
same,Visual Weed Control (%) Obs,"ECHCG [4]; 19 DAA, 8 gae/ha",35%
same,Visual Weed Control (%) Obs,"ECHCG [4]; 19 DAA, 16 gae/ha",85%
same,Visual Weed Control (%) Obs,"ECHCG [4]; 20 DAA, 4.38 gae/ha",15%
same,Visual Weed Control (%) Obs,"ECHCG [4]; 20 DAA, 8.75 gae/ha",20%
same,Visual Weed Control (%) Obs,"ECHCG [4]; 20 DAA, 17.5 gae/ha",40%
same,Visual Weed Control (%) Obs,"ECHCG [4]; 22 DAA, 4.38 gae/ha",30%
same,Visual Weed Control (%) Obs,"ECHCG [4]; 22 DAA, 8.75 gae/ha",45%
same,Visual Weed Control (%) Obs,"ECHCG [4]; 22 DAA, 17.5 gae/ha",90%
same,Visual Weed Control (%) - 20 DAA IPOHE Obs,IPOHE; 4.38 gae/ha,0%
same,Visual Weed Control (%) - 20 DAA IPOHE Obs,IPOHE; 8.75 gae/ha,10%
same,Visual Weed Control (%) - 20 DAA IPOHE Obs,IPOHE; 17.5 gae/ha,25%
same,Visual Weed Control (%) - 21 DAA CYPIR Obs,CYPIR; 4.38 gae/ha,75%
same,Visual Weed Control (%) - 20 DAA CYPIR Obs,CYPIR; 8.75 gae/ha,35%
same,Visual Weed Control (%) - 21 DAA CYPIR Obs,CYPIR; 8.75 gae/ha,85%
